In US20060258683A1, “Para-sulfonyl substituted phenyl compounds as modulators of ppars” (priority 2003, published 2006) one finds EC50 data, which are given here for 37 compounds.

Holding throughout (type): cell-based
One experiment addresses T1, PPARα (Homo sapiens, UniProt Q07869).
T1 construct: expressed in transfected cells; host or cells: CV-1 cells
T1 sequence (Q07869 239-466 limits assumed): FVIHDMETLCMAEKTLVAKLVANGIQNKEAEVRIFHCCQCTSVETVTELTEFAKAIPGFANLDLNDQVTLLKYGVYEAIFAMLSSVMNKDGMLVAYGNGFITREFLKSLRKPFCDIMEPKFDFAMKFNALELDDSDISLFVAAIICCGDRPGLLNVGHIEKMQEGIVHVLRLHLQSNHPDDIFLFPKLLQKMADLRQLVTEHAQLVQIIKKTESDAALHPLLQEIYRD
The experiment in a line: PPAR-alpha EC50, functional cell (transactivation) assay. From the text:
(§1) The following transfection assay methods are provided by way of example only. Compounds may be screened for functional potency in transient transfection assays in CV-1 cells for their ability to activate the PPAR subtypes (transactivation assay). A previously established chimeric receptor system was utilized to allow comparison of the relative transcriptional activity of the receptor subtypes on the same target gene and to prevent endogenous receptor activation from complicating the interpretation of results. See, for example, Lehmann, J. M.; Moore, L. B.; Smith-Oliver, T. A; Wilkinson, W. O.; Willson, T. M.; Kliewer, S. A., An antidiabetic thiazolidinedione is a high affinity ligand for peroxisome proliferator-activated receptor γ(PPARγ), J. Biol. Chem., 1995, 270, 12953-6. The ligand binding domains for murine and human PPAR-alpha, PPAR-gamma, and PPAR-delta are each fused to the yeast transcription factor GAL4 DNA binding domain. CV-1 cells were transiently transfected with expression vectors for the respective PPAR chimera along with a reporter construct containing five copies of the GAL4 DNA binding site driving expression of secreted placental alkaline phosphatase (SPAP) and p-galactosidase. After 16 h, the medium is exchanged to DME medium supplemented with 10% delipidated fetal calf serum and the test compound at the appropriate concentration. After an additional 24 h, cell extracts are prepared and assayed for alkaline phosphatase and pgalactosidase activity. Alkaline phosphatase activity was corrected for transfection efficiency using the p-galactosidase activity as an internal standard (see, for example, Kliewer, S. A., et. al. Cell 1995, 83, 813-819. Rosiglitazone is used as a positive control in the hPPARγ assay. The positive control in the hPPAR-alpha and hPPAR-delta assays was 2-[4-(2-(3-(4-fluorophenyl)-1heptylureido)ethyl)-phenoxy]-2-methylpropionic acid, which can be prepared as described in Brown, Peter J., et. al. Synthesis (7), 778-782 (1997), or patent publication WO 9736579.
(§2) Compounds of Examples 1-41 were assayed to measure their biological activity with respect to their EC50 values and efficacy for modulating PPAR-alpha, PPAR-gamma, and PPAR-delta as set forth in Table 2.

The next experiment has as its target T2, PPARδ (Homo sapiens, UniProt Q03181).
T2 construct: expressed in transfected cells; host or cells: CV-1 cells
T2 sequence (Q03181 211-439 limits assumed): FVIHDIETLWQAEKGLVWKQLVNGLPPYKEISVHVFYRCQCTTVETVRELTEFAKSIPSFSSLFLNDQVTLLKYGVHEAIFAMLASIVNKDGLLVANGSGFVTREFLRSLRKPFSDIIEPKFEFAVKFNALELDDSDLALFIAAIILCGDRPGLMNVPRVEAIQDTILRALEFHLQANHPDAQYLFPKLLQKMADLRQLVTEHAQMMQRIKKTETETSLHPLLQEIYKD
The experiment in a line: PPAR-delta EC50, functional cell (transactivation) assay.
Text: as §1, §2

For another experiment, the target named is T3, PPARγ (Homo sapiens, UniProt P37231).
T3 construct: expressed in transfected cells; host or cells: CV-1 cells
T3 sequence (P37231 238-503 limits assumed): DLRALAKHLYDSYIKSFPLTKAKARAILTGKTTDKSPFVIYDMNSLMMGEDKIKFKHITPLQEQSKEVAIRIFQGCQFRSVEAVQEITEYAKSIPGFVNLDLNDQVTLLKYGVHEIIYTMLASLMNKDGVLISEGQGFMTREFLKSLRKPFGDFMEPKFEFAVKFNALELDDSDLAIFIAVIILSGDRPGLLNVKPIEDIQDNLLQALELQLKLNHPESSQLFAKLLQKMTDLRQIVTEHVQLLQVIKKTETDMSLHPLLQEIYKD
Put plainly: PPAR-gamma EC50, functional cell (transactivation) assay.
Text: as §1, §2

Each structure is given as a SMILES string.

For `Cc1ccc(N2CCN(S(=O)(=O)c3ccc(OC(C)(C)C(=O)O)cc3)CC2)c(C)c1`, the half-maximal effective concentration (EC50) (commonly the concentration needed to bring the measured effect to its halfway point) at PPARα was 1 to 100 µM; at PPARδ, 1 to 100 µM; at PPARγ it was > 100 µM.

In the case of `CC(C)(Oc1ccc(S(=O)(=O)N2CCN(c3ccccc3)CC2)cc1)C(=O)O`, the EC50 at PPARα is > 100 µM; on PPARδ it was 1 to 100 µM; on PPARγ, > 100 µM.

With `CC(C)(Oc1ccc(S(=O)(=O)N2CCN(c3ccccc3F)CC2)cc1)C(=O)O`, the EC50 at PPARα is > 100 µM; on PPARδ it was 1 to 100 µM; on PPARγ, > 100 µM.

For the compound `CCc1cnc(N2CCN(S(=O)(=O)c3ccc(OC(C)(C)C(=O)O)cc3)CC2)nc1`, the EC50 at PPARα, on PPARδ and on PPARγ was 1 to 100 µM in each case.

Consider `CC(C)(Oc1ccc(S(=O)(=O)N2CCN(c3ccc(Cl)c(Cl)c3)CC2)cc1)C(=O)O`, for which the EC50 on PPARα, on PPARδ and on PPARγ was 1 to 100 µM each time.

For the compound `CC(C)(Oc1ccc(S(=O)(=O)N2CCN(c3ccccn3)CC2)cc1)C(=O)O`, the EC50 at PPARα, on PPARδ and at PPARγ was > 100 µM throughout.

As for `Cc1cccc(N2CCN(S(=O)(=O)c3ccc(OC(C)(C)C(=O)O)cc3)CC2C)c1` (stereo not drawn), the 50% effective concentration (EC50) on PPARα is > 100 µM; on PPARδ, 1 to 100 µM; at PPARγ, > 100 µM.

For `CC(C)(Oc1ccc(S(=O)(=O)N2CCN(c3cccc(C(F)(F)F)c3)CC2)cc1)C(=O)O`, the EC50 on PPARα was > 100 µM; at PPARδ it was 1 to 100 µM; on PPARγ it was 1 to 100 µM.

Turning to `Cc1cc(S(=O)(=O)N2CCN(c3ccc(Cl)c(Cl)c3)CC2)ccc1OC(C)(C)C(=O)O`, the EC50 on PPARα was 1 to 100 µM; on PPARδ it was < 1 µM; on PPARγ it was 1 to 100 µM.

As to `Cc1cc(S(=O)(=O)N2CCN(c3ccc(Cl)cc3)CC2)ccc1OC(C)(C)C(=O)O`, the EC50 was > 100 µM at PPARα, < 1 µM at PPARδ and 1 to 100 µM at PPARγ.

For the compound `Cc1ccc(N2CCN(S(=O)(=O)c3ccc(OC(C)(C)C(=O)O)c(C)c3)CC2)c(C)c1`, the EC50 on PPARα was > 100 µM; on PPARδ, 1 to 100 µM; at PPARγ, 1 to 100 µM.

Consider `Cc1cccc(N2CCN(S(=O)(=O)c3ccc(OC(C)(C)C(=O)O)c(C)c3)CC2C)c1` (stereo not drawn), for which the concentration for a half-maximal effect (EC50) at PPARα was > 100 µM; at PPARδ, < 1 µM; on PPARγ, 1 to 100 µM.

Consider `Cc1ccc(N2CCN(S(=O)(=O)c3ccc(OC(C)(C)C(=O)O)c(C)c3)CC2C)cc1C` (stereo not drawn), for which the values for the EC50 at PPARα, on PPARδ and on PPARγ were > 100 µM, 1 to 100 µM and > 100 µM, respectively.

`Cc1cc(S(=O)(=O)N2CCN(c3cc(Cl)ccc3C)C(C)C2)ccc1OC(C)(C)C(=O)O` (stereo not drawn): the EC50 was > 100 µM at PPARα, 1 to 100 µM on PPARδ and > 100 µM at PPARγ.

For the compound `Cc1cc(S(=O)(=O)N2CCN(CCc3ccccc3)CC2)ccc1OC(C)(C)C(=O)O`, the concentration giving a half-maximal response (EC50) was > 100 µM on PPARα, 1 to 100 µM on PPARδ and > 100 µM on PPARγ.

`Cc1cc(S(=O)(=O)N2CCN(c3ccc(C#N)cc3)CC2)ccc1OC(C)(C)C(=O)O`: the EC50 at PPARα was > 100 µM; at PPARδ, 1 to 100 µM; on PPARγ, > 100 µM.

`Cc1cc(S(=O)(=O)N2CCN(Cc3ccc(F)cc3)CC2)ccc1OC(C)(C)C(=O)O`: the EC50 is > 100 µM at PPARα, 1 to 100 µM on PPARδ and 1 to 100 µM at PPARγ.

With `COc1ccc(N2CCN(S(=O)(=O)c3ccc(OC(C)(C)C(=O)O)c(C)c3)CC2)cc1`, the EC50 was > 100 µM on PPARα, 1 to 100 µM on PPARδ and 1 to 100 µM at PPARγ.

For `Cc1cc(S(=O)(=O)N2CCN(c3cccc(Br)c3)CC2)ccc1OC(C)(C)C(=O)O`, the 50% effective concentration (EC50) is > 100 µM on PPARα, < 1 µM on PPARδ and 1 to 100 µM at PPARγ.

In the case of `Cc1cc(S(=O)(=O)N2CCN(c3ccc(C(C)(C)C)cc3)CC2)ccc1OC(C)(C)C(=O)O`, the EC50 at PPARα was > 100 µM; at PPARδ it was 1 to 100 µM; at PPARγ it was 1 to 100 µM.

In the case of `COc1ccc(N2CCN(S(=O)(=O)c3ccc(OC(C)(C)C(=O)O)c(C)c3)CC2)cc1OC`, the EC50 on PPARα, on PPARδ and at PPARγ was 1 to 100 µM each time.

Regarding `Cc1cc(S(=O)(=O)N2CCN(c3ccc(C(F)(F)F)cc3[N+](=O)[O-])CC2)ccc1OC(C)(C)C(=O)O`, the EC50 is > 100 µM on PPARα, 1 to 100 µM on PPARδ and 1 to 100 µM on PPARγ.

In the case of `COc1ccccc1N1CCN(S(=O)(=O)c2ccc(OC(C)(C)C(=O)O)c(C)c2)CC1`, the EC50 on PPARα was > 100 µM; on PPARδ, 1 to 100 µM; at PPARγ, 1 to 100 µM.

Regarding `Cc1cc(S(=O)(=O)N2CCN(C3CCCCC3)CC2)ccc1OC(C)(C)C(=O)O`, the values for the concentration for a half-maximal effect (EC50) on PPARα, on PPARδ and at PPARγ were > 100 µM, 1 to 100 µM and > 100 µM, respectively.

For `Cc1ccc(C)c(N2CCN(S(=O)(=O)c3ccc(OC(C)(C)C(=O)O)c(C)c3)CC2)c1`, the figures for the EC50 on PPARα, at PPARδ and on PPARγ were > 100 µM, 1 to 100 µM and 1 to 100 µM, respectively.

Turning to `Cc1cc(S(=O)(=O)N2CCN(CC3CCCCC3)CC2)ccc1OC(C)(C)C(=O)O`, the values for the EC50 on PPARα, on PPARδ and on PPARγ were > 100 µM, 1 to 100 µM and 1 to 100 µM, respectively.

For `Cc1cc(S(=O)(=O)N2CCN(c3ccccc3C#N)CC2)ccc1OC(C)(C)C(=O)O`, the EC50 was > 100 µM on PPARα, 1 to 100 µM at PPARδ and 1 to 100 µM at PPARγ.

Turning to `Cc1cc(S(=O)(=O)N2CCN(c3ccc([N+](=O)[O-])cc3)CC2)ccc1OC(C)(C)C(=O)O`, the EC50 on PPARα is > 100 µM; on PPARδ, 1 to 100 µM; at PPARγ it was 1 to 100 µM.

With `Cc1cc(S(=O)(=O)N2CCN(C(=O)c3ccco3)CC2)ccc1OC(C)(C)C(=O)O`, the results for the EC50 on PPARα, at PPARδ and at PPARγ were > 100 µM, 1 to 100 µM and > 100 µM, respectively.

Consider `COc1cccc(N2CCN(S(=O)(=O)c3ccc(OC(C)(C)C(=O)O)c(C)c3)CC2)c1`, for which the EC50 at PPARα, on PPARδ and on PPARγ was 1 to 100 µM each time.

Regarding `Cc1cc(S(=O)(=O)N2CCN(C(c3ccc(F)cc3)c3ccc(F)cc3)CC2)ccc1OC(C)(C)C(=O)O`, the EC50 on PPARα, at PPARδ and on PPARγ was 1 to 100 µM each time.

As to `Cc1cc(S(=O)(=O)N2CCN(c3ccccc3F)CC2)ccc1OC(C)(C)C(=O)O`, the EC50 at PPARα is > 100 µM; on PPARδ it was < 1 µM; on PPARγ, 1 to 100 µM.

In the case of `CCOc1ccccc1N1CCN(S(=O)(=O)c2ccc(OC(C)(C)C(=O)O)c(C)c2)CC1`, the EC50 on PPARα, at PPARδ and at PPARγ was 1 to 100 µM each time.

Turning to `Cc1cc(S(=O)(=O)N2CCN(C/C=C/c3ccccc3)CC2)ccc1OC(C)(C)C(=O)O`, the concentration giving a half-maximal response (EC50) on PPARα was > 100 µM; on PPARδ, 1 to 100 µM; at PPARγ, 1 to 100 µM.

Turning to `Cc1cc(S(=O)(=O)N2CCN(c3ccc(F)cc3)CC2)ccc1OC(C)(C)C(=O)O`, the results for the EC50 on PPARα, at PPARδ and at PPARγ were > 100 µM, < 1 µM and 1 to 100 µM, respectively.

In the case of `Cc1cc(S(=O)(=O)N2CCN(c3ccccc3)CC2)ccc1OC(C)(C)C(=O)O`, the results for the EC50 on PPARα, at PPARδ and on PPARγ were > 100 µM, 1 to 100 µM and 1 to 100 µM, respectively.

Take `Cc1cc(S(=O)(=O)N2CCN(C(c3ccccc3)c3ccccc3)CC2)ccc1OC(C)(C)C(=O)O`: the values for the EC50 on PPARα, on PPARδ and at PPARγ were > 100 µM, 1 to 100 µM and 1 to 100 µM, respectively.
